Source: the NIST ThermoML archive (doi:10.1021/je060204g)

Details: 101 kPa, Liquid mixture 1, Drop weight

Cc1ccccc1 [toluene] + O
Details | interfacial tension [mN/m]
293.15 K | 37.1
298.15 K | 36.1
303.15 K | 35.5
308.15 K | 35.1
313.15 K | 34.7
323.15 K | 34.3
